Assay results as given in patent US9890124B2, “Benzazepine sulfonamide compounds” (Hoffmann-La Roche Inc., priority 2015, dated 2018).

Legend:
human TLR8 = human TLR8 (Homo sapiens (Human), UniProt Q9NR97); test: HEK-Blue human TLR8 cells NF-κB SEAP reporter assay; type: cell-based; conditions: stimulation for 20 hours
Text: (§1) For TLR8 and TLR7 activity testing, HEK-Blue human TLR8 or TLR7 cells (Invivogen, San Diego, Calif., USA) are used, respectively. These cells are designed for studying the stimulation of human TLR8 or TLR7 by monitoring the activation of NF-κB. A SEAP (secreted embryonic alkaline phosphatase) reporter gene is placed under the control of the IFN-b minimal promoter fused to five NF-κB and AP-1-binding sites. Therefore the reporter expression is regulated by the NF-κB promoter upon stimulation of human TLR8 or TLR7 for 20 hours. The cell culture supernatant SEAP reporter activity was determined using Quanti Blue kit (Invivogen, San Diego, Calif., USA) at a wavelength of 640 nm, a detection medium that turns purple/blue in the presence of alkaline phosphatase. EC50 values were determined using Activity Base analysis (ID Business Solution, Limited).

human TLR7 = human TLR7 (Homo sapiens (Human), UniProt Q9NYK1); test: HEK-Blue human TLR7 cells NF-κB SEAP reporter assay; type: cell-based; conditions: stimulation for 20 hours
Text: as §1

human TLR8, sequence (Q9NR97 27-1041): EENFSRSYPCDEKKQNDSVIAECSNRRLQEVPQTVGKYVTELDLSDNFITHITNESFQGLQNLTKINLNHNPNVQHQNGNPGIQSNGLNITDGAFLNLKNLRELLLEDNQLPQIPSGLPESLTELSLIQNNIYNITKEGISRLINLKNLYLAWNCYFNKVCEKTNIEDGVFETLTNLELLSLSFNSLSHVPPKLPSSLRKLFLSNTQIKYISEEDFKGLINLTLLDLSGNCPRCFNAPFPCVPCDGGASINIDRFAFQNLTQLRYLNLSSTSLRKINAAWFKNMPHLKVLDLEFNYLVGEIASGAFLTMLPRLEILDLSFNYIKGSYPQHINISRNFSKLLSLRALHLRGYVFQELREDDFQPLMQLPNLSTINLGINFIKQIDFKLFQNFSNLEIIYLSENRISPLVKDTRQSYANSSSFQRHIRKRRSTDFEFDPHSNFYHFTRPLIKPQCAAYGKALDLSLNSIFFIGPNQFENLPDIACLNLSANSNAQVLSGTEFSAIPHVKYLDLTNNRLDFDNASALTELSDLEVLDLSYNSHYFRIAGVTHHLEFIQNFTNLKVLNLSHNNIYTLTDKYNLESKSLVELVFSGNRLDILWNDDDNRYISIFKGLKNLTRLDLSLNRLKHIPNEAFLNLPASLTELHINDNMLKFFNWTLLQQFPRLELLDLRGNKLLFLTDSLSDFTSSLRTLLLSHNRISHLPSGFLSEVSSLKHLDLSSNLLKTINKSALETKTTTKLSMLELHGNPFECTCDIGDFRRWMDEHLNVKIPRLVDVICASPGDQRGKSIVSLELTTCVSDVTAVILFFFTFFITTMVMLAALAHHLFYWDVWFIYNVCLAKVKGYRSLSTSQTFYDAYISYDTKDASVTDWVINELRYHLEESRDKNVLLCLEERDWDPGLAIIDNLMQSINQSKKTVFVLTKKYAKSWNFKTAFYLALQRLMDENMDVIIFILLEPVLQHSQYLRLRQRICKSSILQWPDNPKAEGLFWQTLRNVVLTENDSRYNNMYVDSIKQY
human TLR7, sequence (Q9NYK1 27-1049): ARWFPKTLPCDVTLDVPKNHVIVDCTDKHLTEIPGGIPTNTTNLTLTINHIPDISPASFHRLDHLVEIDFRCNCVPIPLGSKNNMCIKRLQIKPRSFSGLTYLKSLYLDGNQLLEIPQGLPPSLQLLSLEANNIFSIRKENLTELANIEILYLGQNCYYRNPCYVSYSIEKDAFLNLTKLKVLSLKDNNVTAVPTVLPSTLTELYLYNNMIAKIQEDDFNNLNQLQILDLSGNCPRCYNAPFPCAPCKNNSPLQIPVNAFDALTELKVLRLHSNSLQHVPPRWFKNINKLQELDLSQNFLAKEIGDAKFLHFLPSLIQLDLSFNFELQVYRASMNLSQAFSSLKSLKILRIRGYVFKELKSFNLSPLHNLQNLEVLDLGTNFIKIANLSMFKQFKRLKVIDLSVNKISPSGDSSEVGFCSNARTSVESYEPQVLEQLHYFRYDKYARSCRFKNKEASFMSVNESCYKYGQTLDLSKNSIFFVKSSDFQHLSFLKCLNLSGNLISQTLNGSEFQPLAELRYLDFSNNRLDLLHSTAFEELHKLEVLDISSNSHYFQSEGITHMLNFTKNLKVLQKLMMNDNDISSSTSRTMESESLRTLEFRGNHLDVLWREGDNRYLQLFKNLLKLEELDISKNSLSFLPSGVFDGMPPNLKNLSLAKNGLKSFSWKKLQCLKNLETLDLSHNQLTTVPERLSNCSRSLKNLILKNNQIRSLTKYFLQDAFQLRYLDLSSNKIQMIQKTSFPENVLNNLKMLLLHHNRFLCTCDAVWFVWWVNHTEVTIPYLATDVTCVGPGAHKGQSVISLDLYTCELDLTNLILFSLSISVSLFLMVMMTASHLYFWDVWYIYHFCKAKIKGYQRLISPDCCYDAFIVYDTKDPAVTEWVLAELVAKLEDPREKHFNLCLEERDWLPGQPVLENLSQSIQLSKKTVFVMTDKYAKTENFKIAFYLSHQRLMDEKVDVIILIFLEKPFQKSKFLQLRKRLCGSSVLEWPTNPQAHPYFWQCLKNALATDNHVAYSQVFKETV

| SMILES | EC50 (human TLR8) | EC50 (human TLR7) |
| --- | --- | --- |
| CCCN(CCC)C(=O)C1=Cc2ccc(-c3cccc(S(=O)(=O)N4CCC(O)C4)c3)cc2N=C(N)C1 (stereo not shown) [Example 5, 2-Amino-8-[3-(3-hydroxypyrrolidin-1-yl)sulfonylphenyl]-N,N-dipropyl-3H-1-benzazepine-4-carboxamide] | 0.003 µM | 103 µM |
| CCCN(CCC)C(=O)C1=Cc2ccc(-c3ccc(S(=O)(=O)N4CCC(O)C4)cc3)cc2N=C(N)C1 (stereo not shown) [Example 6, 2-Amino-8-[4-(3-hydroxypyrrolidin-1-yl)sulfonylphenyl]-N,N-dipropyl-3H-1-benzazepine-4-carboxamide] | 0.01 µM | 104 µM |
| CCCN(CCC)C(=O)C1=Cc2ccc(-c3cccc(S(=O)(=O)N4CC[C@H](O)C4)c3)cc2N=C(N)C1 [Example 8, 2-Amino-8-[3-[(3S)-3-hydroxypyrrolidin-1-yl]sulfonylphenyl]-N,N-dipropyl-3H-1-benzazepine-4-carboxamide] | 0.005 µM | 24 µM |
| CCCN(CCC)C(=O)C1=Cc2ccc(-c3cccc(S(=O)(=O)N(C)CCO)c3)cc2N=C(N)C1 [Example 10, 2-Amino-8-[3-[2-hydroxyethyl(methyl)sulfamoyl]phenyl]-N,N-dipropyl-3H-1-benzazepine-4-carboxamide] | 0.004 µM | 20 µM |
| CCCN(CCC)C(=O)C1=Cc2ccc(-c3cccc(S(=O)(=O)NCCOCCO)c3)cc2N=C(N)C1 [Example 11, 2-Amino-8-[3-[2-(2-hydroxyethoxy)ethylsulfamoyl]phenyl]-N,N-dipropyl-3H-1-benzazepine-4-carboxamide] | 0.008 µM | 12 µM |
| CCCN(CCC)C(=O)C1=Cc2ccc(-c3cccc(S(=O)(=O)NCCCCCCO)c3)cc2N=C(N)C1 [Example 12, 2-Amino-8-[3-(6-hydroxyhexylsulfamoyl)phenyl]-N,N-dipropyl-3H-1-benzazepine-4-carboxamide] | 0.008 µM | 12 µM |
| CCCN(CCC)C(=O)C1=Cc2ccc(-c3cccc(S(=O)(=O)N4CCC(O)CC4)c3)cc2N=C(N)C1 [Example 13, 2-Amino-8-[3-[(4-hydroxy-1-piperidyl)sulfonyl]phenyl]-N,N-dipropyl-3H-1-benzazepine-4-carboxamide] | 0.004 µM | 17 µM |
| CCCN(CCC)C(=O)C1=Cc2ccc(-c3ccc(OC)c(S(=O)(=O)N4CC[C@@H](O)C4)c3)cc2N=C(N)C1 [Example 15, 2-Amino-8-[3-[(3R)-3-hydroxypyrrolidin-1-yl]sulfonyl-4-methoxy-phenyl]-N,N-dipropyl-3H-1-benzazepine-4-carboxamide] | 0.004 µM | 17 µM |
| CCCN(CCC)C(=O)C1=Cc2ccc(-c3cccc(S(=O)(=O)N4CC(CO)C4)c3)cc2N=C(N)C1 [Example 16, 2-Amino-8-[3-[3-(hydroxymethyl)azetidin-1-yl]sulfonylphenyl]-N,N-dipropyl-3H-1-benzazepine-4-carboxamide] | 0.002 µM | 26 µM |
| CCCN(CCC)C(=O)C1=Cc2ccc(-c3cccc(S(=O)(=O)N4CCNCC4)c3)cc2N=C(N)C1 [Example 21, 2-Amino-8-(3-piperazin-1-ylsulfonylphenyl)-N,N-dipropyl-3H-1-benzazepine-4-carboxamide] | 0.018 µM | > 100 µM |
| CCCN(CCC)C(=O)C1=Cc2ccc(-c3cncc(S(=O)(=O)N4CCC(N)C4)c3)cc2N=C(N)C1 (stereo not shown) [Example 22, 2-Amino-8-[5-(3-aminopyrrolidin-1-yl)sulfonyl-3-pyridyl]-N,N-dipropyl-3H-1-benzazepine-4-carboxamide] | 0.031 µM | 17 µM |
| CCCN(CCC)C(=O)C1=Cc2ccc(-c3cc(C)cc(S(=O)(=O)N4CC[C@@H](O)C4)c3)cc2N=C(N)C1 [Example 23, 2-Amino-8-[3-[(3R)-3-hydroxypyrrolidin-1-yl]sulfonyl-5-methyl-phenyl]-N,N-dipropyl-3H-1-benzazepine-4-carboxamide] | 0.006 µM | 13 µM |

More lines, in order of falling EC50 (human TLR8), values ahead:

| EC50 (human TLR8) | EC50 (human TLR7) | SMILES |
| --- | --- | --- |
| 0.023 µM | 5 µM | CCCN(CCC)C(=O)C1=Cc2ccc(-c3cncc(S(N)(=O)=O)c3)cc2N=C(N)C1 [Example 4, 2-Amino-N,N-dipropyl-8-(5-sulfamoyl-3-pyridyl)-3H-1-benzazepine-4-carboxamide] |
| 0.017 µM | 5 µM | CCCN(CCC)C(=O)C1=Cc2ccc(-c3cncc(S(=O)(=O)N4CCNCC4)c3)cc2N=C(N)C1 [Example 20, 2-Amino-8-(5-piperazin-1-ylsulfonyl-3-pyridyl)-N,N-dipropyl-3H-1-benzazepine-4-carboxamide] |
| 0.009 µM | > 100 µM | CCCN(CCC)C(=O)C1=Cc2ccc(-c3cc(C(F)(F)F)cc(S(=O)(=O)N4CC[C@@H](O)C4)c3)cc2N=C(N)C1 [Example 14, 2-Amino-8-[3-[(3R)-3-hydroxypyrrolidin-1-yl]sulfonyl-5-(trifluoromethyl)phenyl]-N,N-dipropyl-3H-1-benzazepine-4-carboxamide] |
| 0.009 µM | 14 µM | CCCN(CCC)C(=O)C1=Cc2ccc(-c3cccc(S(=O)(=O)N4CC[C@@H](O)C4)c3C)cc2N=C(N)C1 [Example 19, 2-Amino-8-[3-[(3R)-3-hydroxypyrrolidin-1-yl]sulfonyl-2-methyl-phenyl]-N,N-dipropyl-3H-1-benzazepine-4-carboxamide] |
| 0.006 µM | 3 µM | CCCN(CCC)C(=O)C1=Cc2ccc(-c3cccc(S(N)(=O)=O)c3)cc2N=C(N)C1 [Example 1, 2-Amino-N,N-dipropyl-8-(3-sulfamoylphenyl)-3H-1-benzazepine-4-carboxamide] |
| 0.006 µM | 7 µM | CCCN(CCC)C(=O)C1=Cc2ccc(-c3cccc(S(=O)(=O)NCCO)c3)cc2N=C(N)C1 [Example 2, 2-Amino-8-[3-(2-hydroxyethylsulfamoyl)phenyl]-N,N-dipropyl-3H-1-benzazepine-4-carboxamide] |
| 0.006 µM | > 100 µM | CCCN(CCC)C(=O)C1=Cc2ccc(-c3cccc(S(=O)(=O)N4CCCC4)c3)cc2N=C(N)C1 [Example 3, 2-amino-N,N-dipropyl-8-(3-pyrrolidin-1-ylsulfonylphenyl)-3H-1-benzazepine-4-carboxamide] |
| 0.006 µM | > 100 µM | CCCN(CCC)C(=O)C1=Cc2ccc(-c3cccc(S(=O)(=O)N4CCC[C@H](O)C4)c3)cc2N=C(N)C1 [Example 18, 2-Amino-8-[3-[[(3S)-3-hydroxy-1-piperidyl]sulfonyl]phenyl]-N,N-dipropyl-3H-1-benzazepine-4-carboxamide] |
| 0.005 µM | 18 µM | CCCN(CCC)C(=O)C1=Cc2ccc(-c3cccc(S(=O)(=O)N4CC[C@@H](O)C4)c3)cc2N=C(N)C1 [Example 7, 2-Amino-8-[3-[(3R)-3-hydroxypyrrolidin-1-yl]sulfonylphenyl]-N,N-dipropyl-3H-1-benzazepine-4-carboxamide] |
| 0.005 µM | 17 µM | CCCN(CCC)C(=O)C1=Cc2ccc(-c3cccc(S(=O)(=O)N4CC(O)C4)c3)cc2N=C(N)C1 [Example 9, 2-Amino-8-[3-(3-hydroxyazetidin-1-yl)sulfonylphenyl]-N,N-dipropyl-3H-1-benzazepine-4-carboxamide] |
| 0.005 µM | > 100 µM | CCCN(CCC)C(=O)C1=Cc2ccc(-c3cccc(S(=O)(=O)N4CCC[C@@H](O)C4)c3)cc2N=C(N)C1 [Example 17, 2-Amino-8-[3-[[(3R)-3-hydroxy-1-piperidyl]sulfonyl]phenyl]-N,N-dipropyl-3H-1-benzazepine-4-carboxamide] |
